In paper PMC3224947, “Inhibition of HIV-1 integrase nuclear import and replication by a peptide bearing integrase putative nuclear localization signal” (Retrovirology, 2009):

Tests used:
[1] = system: COS-7 cells (nuclear import); assay: Microinjection of FITC-BSA conjugates into COS-7 cells, nuclear import; format: cell-based; details: 37°C, 2 h after injection, fluorescence microscopy (Fig. 3A-E)
Source text: Nuclear import transport substrates
Proteins and peptides used in this work as transport substrates were covalently attached to either fluorescein isothiocyanate-labeled bovine serum albumin (FITC-BSA) or biotinylated BSA (Bb) molecules (Sigma). Sulfosuccinimidyl-4-(N-maleimidomethyl) cyclohexane-1-carboxylate (sulfo-SMCC) was used as the cross-linker to give FITC-BSA-protein/peptide and Bb-protein/peptide conjugates, as described previously.
Microinjection of fluorescently labeled transport substrates
FITC-BSA-IN, FITC-BSA-180-IN, FITC-BSA-152-IN, FITC-BSA-NLS-IN, as well as unlabeled FITC-BSA, were microinjected into the cytoplasm of cultured COS-7 cells as described previously. The CompInject AIS2 automated microinjection system (Cell Biology Trading, Hamburg, Germany) was used following the method developed by Graessmann and Graessman. Cultured mammalian cells were incubated at 37°C for 2 h after injection and observed by fluorescence microscopy.

[2] = system: HIV-1 in TZM-bl cells; assay: MAGI assay, HIV-1 infection of TZM-bl cells (β-galactosidase reporter); format: cell-based; details: TZM-bl cells (Fig. 9A, B); dividing/non-dividing not distinguished
Protocol: HIV-1 titration by multinuclear activation of a galactosidase indicator (MAGI) assay
Quantitative titration of HIV-1 was carried out using the MAGI assay, as described previously. Briefly, TZM-b1 cells were grown in 96-well plates at 10^4 cells/well and incubated for 12 h at 37°C. Peptides were then added and after an additional 2 h of incubation, the cells were infected with 50 μl of serially diluted HIV-1. To obtain cell-cycle arrested cells, 5 μg/ml of aphidicolin was added 2 h before the experiment. Cultured cells were fixed 2 days PI and β-galactosidase was estimated. Blue cells were counted under a light microscope at 200× magnification.

[3] = system: IN-importin α complex; assay: Co-immunoprecipitation of IN and importin α from HIV-1-infected cells; details: HIV-1-infected H9 lymphocytes, 150 μM peptide 2 h prior to infection, harvested 10 h PI (Fig. 7A)
[4] = system: HIV-1 IN (nuclear import); assay: Immunostaining of IN localization in HIV-1-infected HeLaP4 cells; format: cell-based; details: aphidicolin-arrested HeLaP4, 150 μM peptide 2 h, then HIV-1 MOI 25, fixed 10 h PI (Fig. 7B)
Protocol: Localization studies of IN in HIV-1-infected cultured cells by immunostaining
HeLaP4 cells were grown on chamber slides. […] After incubation with the peptides, cells were infected with wild-type HIV-1 at a multiplicity of infection (MOI) of 25. Cells were fixed and stained as described above with the following modifications: fixation was performed at 10 h PI, the first antibody was used at a dilution of 1:50, the second antibody at a dilution of 1:100.

[5] = system: HIV-1 replication in Sup-T1 cells; assay: Time-of-addition assay, viral p24 production in Sup-T1 cells; format: cell-based; details: non-active peptides, NLS-IN and Pen at 62.5 μM in time-of-addition; sentence cites Fig. 9 as a whole
Protocol: Sup-T1 cells were infected with wild-type HIV-1 at a MOI of 2, and the test compounds were added at different time points after infection (0, 2, 4,..., 24 h). Viral p24 production was determined at 48 h PI [67]. Dextran sulfate was tested at 20 μM, AZT at 2 μM, NLS-IN-Pen, NLS-IN and Pen at 62.5 μM, LEDGF 402-411 at 12.5 μM [41].

[6] = system: HIV-1 IN (nuclear import); assay: Immunostaining of intracellular localization of IN in stably transfected, cell-cycle arrested HeLaP4/IN-expressing cells; format: cell-based; details: aphidicolin 5 μg/ml arrested HeLaP4/IN cells; 150 μM peptide, 6 h; confocal microscopy (Fig. 1)
Protocol: Localization studies of transfected IN in cultured cells by immunostaining
HeLaP4/IN-expressing cells were grown on chamber slides (Nunc). […] Cells were fixed and immunostained essentially as described previously with several modifications. Briefly, after fixation cells were blocked with 5% (w/v) BSA (IgG free) (Jackson) in PBS for 60 min. […] Cells were washed five times with PBS + 0.05% (v/v) Tween 20. Then the cells were incubated with a second antibody, Cy3-conjugated anti-rabbit antibody (Jackson) (1:200) at room temperature for 60 min followed by five washes with PBS + 0.05% Tween 20. For detection of DNA, cells were stained with DAPI according to the manufacturer's protocol. The slides were prepared with mounting media (Bio-Rad) and immunofluorescent cells were detected with a confocal microscope.

Substance | nuclear import after microinjection [1] | HIV-1 infection inhibition [2] | IN-importin α interaction (co-IP) [3] | intranuclear IN in infected cells [4] | inhibition of HIV-1 (Fig. 9) [5] | nuclear import / intracellular localization of IN [6]
FITC-BSA: fluorescein isothiocyanate-labeled bovine serum albumin | no nuclear import was observed | – | – | – | – | –
RQIKIWFQNRRMKWKK [Pen] | – | no inhibition of HIV-1 infection | neither the SV40-mut-NLS-Pen (or a scrambled NLS-IN [23], not shown) nor the Pen peptide itself promoted dissociation of the IN-importin α complex | some intranuclear fluorescently labeled IN could be observed | Inhibition was not observed | did not have any effect on nuclear import of IN
